In assay [1] the test system is HCT-116 human colorectal carcinoma cells. In words: Cell-proliferation assay using Alamar Blue dye.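 Further: cells exposed to compound for about 4 days, then Alamar Blue added and dye fluorescence read after about 4 h, compared with medium-only control wells.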 It counts as cell-based. Particulars: Homo sapiens. Background: Alamar Blue is a resazurin reagent that responds to reducing activity.
In assay [2] the test system is Jurkat. In words: Cell proliferation modulatory activity, Jurkat. Particulars: Homo sapiens. Type of assay: cell-based.
Assay [3] concerns the target recombinant human PIM1 (Homo sapiens (Human), UniProt P11309). In words: PIM-1 kinase activity in cell-free in vitro assay. It counts as biochemical. Particulars: cell-free assay; for inhibition at 0.5 µM: 500 nM compound, read-out: PIM-1: % inh 500 nM.
In assay [4] the target is recombinant human CK2 (Homo sapiens (Human), UniProt P68400). Put plainly: CK2 assay (cell-free, 33P-ATP filter plate). It counts as biochemical. Particulars: 15 um ATP, cell-free assay; read-out: CK2 (15 um ATP) IC50.
Chain of recombinant human CK2 (P68400 whole entry): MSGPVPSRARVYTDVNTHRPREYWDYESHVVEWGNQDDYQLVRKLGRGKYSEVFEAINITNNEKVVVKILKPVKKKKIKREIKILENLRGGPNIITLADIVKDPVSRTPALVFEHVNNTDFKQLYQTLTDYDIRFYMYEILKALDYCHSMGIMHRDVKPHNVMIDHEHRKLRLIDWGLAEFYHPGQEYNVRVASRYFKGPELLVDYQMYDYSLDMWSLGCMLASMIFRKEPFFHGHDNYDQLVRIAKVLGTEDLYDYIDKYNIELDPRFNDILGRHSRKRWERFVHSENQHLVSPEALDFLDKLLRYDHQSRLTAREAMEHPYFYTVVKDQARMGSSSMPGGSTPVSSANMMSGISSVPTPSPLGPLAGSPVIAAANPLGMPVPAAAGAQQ
Chain of recombinant human CK2 (P67870 whole entry partner): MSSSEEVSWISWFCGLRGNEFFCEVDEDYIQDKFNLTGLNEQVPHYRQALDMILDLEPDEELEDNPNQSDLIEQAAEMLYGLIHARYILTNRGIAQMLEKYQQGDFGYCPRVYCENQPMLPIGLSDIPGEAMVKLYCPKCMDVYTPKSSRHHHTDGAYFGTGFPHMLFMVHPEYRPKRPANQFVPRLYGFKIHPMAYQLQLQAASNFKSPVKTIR
[5] abbreviates: HCT-116, HCT-116, second HCT-116 column (c8), read-out: HCT-116 (uM), cell proliferation modulatory activity.
Setting [6] is: HCT-116, read-out: HCT-116 (uM), cell proliferation modulatory activity, HCT-116, second HCT-116 column (c8).

The structures appear in SMILES notation. pIC50: −log10 of the molar value. Like-named read-outs stand apart in the source and are kept apart here.

Consider 47 compounds from patent US8168651B2, “Protein kinase modulators” (Cylene Pharmaceuticals, Inc., priority 2008, dated 2012).

Chain of recombinant human PIM1 (P11309 whole entry): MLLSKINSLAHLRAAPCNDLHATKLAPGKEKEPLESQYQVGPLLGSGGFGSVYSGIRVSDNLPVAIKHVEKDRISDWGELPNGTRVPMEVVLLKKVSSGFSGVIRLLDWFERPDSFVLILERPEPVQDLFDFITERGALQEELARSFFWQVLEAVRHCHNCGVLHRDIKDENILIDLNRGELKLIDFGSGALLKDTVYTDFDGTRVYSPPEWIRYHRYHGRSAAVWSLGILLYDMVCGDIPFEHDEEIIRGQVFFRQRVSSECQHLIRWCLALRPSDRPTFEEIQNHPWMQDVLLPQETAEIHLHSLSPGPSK

Turning to `O=C(O)c1ccc2c(c1)nc(Nc1cccc(OC(F)(F)F)c1)c1ccncc12`, the IC50 in assay [1] (setting [5]) was greater than 10 µM. Besides, the IC50 in assay [2] came out at 7.44 µM. Further, in assay [3], the inhibition at 0.5 µM was determined as 87.3% and the pIC50 (in general, the IC50 on a negative log10 scale, so that one unit is a factor of ten) was 6.15.
For `C#Cc1cccc(Nc2nc3cc(C(=O)N(C)CCN(C)C)ccc3c3cncnc23)c1`, the IC50 in assay [1] (setting [5]) turned out to be 4.39 µM; in assay [2], 4.37 µM. Besides, the inhibition at 0.5 µM in assay [3] was -15.5%.
As to `O=C(O)c1ccc2c(c1)nc(Nc1ccc(Oc3ccccc3)cc1)c1ccncc12`, the IC50 in assay [1] (setting [5]) is greater than 10 µM. The IC50 in assay [2] worked out at 22.9 µM. In addition, in assay [3], the inhibition at 0.5 µM came out at 57.2% and the pIC50 is less than 5.96.
Regarding `O=C(O)c1ccc2c(c1)nc(N1CCOCC1)c1nc(NC3CC3)ncc12` [drawing 1627], the IC50 in assay [1] (setting [5]) is greater than 10 µM; in assay [2] it was 3.67 µM. Also, the inhibition at 0.5 µM in assay [3] was found to be 26%.
On to `COc1ccccc1Nc1nc2cc(C(=O)O)ccc2c2cnccc12`, for which, in assay [1] (setting [5]), the IC50 was greater than 10 µM. For the same compound, the IC50 in assay [2] is 10.4 µM. In addition, in assay [3], the inhibition at 0.5 µM was 75.8% and the pIC50 is 6.16.
Turning to `O=C(O)c1ccc2c(c1)nc(NC1CC1)c1nc(NC3CC3)ncc12` [drawing 1616], the IC50 in assay [1] (setting [6]) is greater than 10 µM; in assay [2], 3.45 µM. The inhibition at 0.5 µM in assay [3] was 27.1%.
Consider `Cc1ccc(C(N)=O)cc1Nc1nc2cc(C(=O)O)ccc2c2cnccc12`, for which the values for the IC50 in assay [1] (setting [5]) and in assay [2] were greater than 10 µM and greater than 30 µM, respectively. For the same compound, the inhibition at 0.5 µM in assay [3] is 9.95%.
With `CCCNc1ncc2c(n1)c(NC1CC1)nc1cc(C(=O)O)ccc12` [drawing 1645], the IC50 in assay [1] (setting [6]) was greater than 10 µM; in assay [2] it was 9.37 µM. The inhibition at 0.5 µM in assay [3] is 13.2%.
In the case of `CSc1ncc2c(n1)c(N(C)c1ccccc1)nc1cc(C(=O)O)ccc12`, the IC50 in assay [1] (setting [5]) was greater than 10 µM. This compound also came in with an IC50 in assay [2] greater than 30 µM. Also, in assay [3], the inhibition at 0.5 µM stood at 48.4% and the pIC50 is 5.96.
Take `C#Cc1cccc(Nc2nc3cc(C(N)=O)ccc3c3cncnc23)c1`: the IC50 was greater than 10 µM in assay [1] (setting [5]) and 31.5 µM in assay [2]. Moreover, the inhibition at 0.5 µM in assay [3] is -38.1%.
The corresponding values for `COC(=O)c1ccc2c(c1)nc(N)c1nc(SC)ncc12` are 4.77 µM, 1.14 µM and -13.2%.
With `Nc1ncc2c(n1)c(Nc1cccc(C(F)(F)F)c1)nc1cc(C(=O)O)ccc12`, the results for the IC50 in assay [1] (setting [6]) and in assay [2] were greater than 10 µM and 2.66 µM, respectively. Also, the inhibition at 0.5 µM in assay [3] was determined as 74.3%. For the same compound, the pIC50 in assay [3] was 6.35.
For the compound `CC(C)Oc1ccc(Nc2ncc3c(n2)c(NC2CC2)nc2cc(C(=O)O)ccc23)cc1`, the IC50 in assay [1] (setting [5]) was greater than 10 µM; in assay [2], 18.9 µM. In addition, in assay [3], the inhibition at 0.5 µM stood at 26.3%.
The corresponding values for `C#Cc1cccc(Nc2nc3cc(C(=O)N4CCCN(C)CC4)ccc3c3cncnc23)c1` are greater than 10 µM, 3.22 µM and -11.2%.
For the compound `O=C(O)c1ccc2c(c1)nc(Nc1ccccc1)c1nc(NCCCN3CCOCC3)ncc12`, the IC50 in assay [1] (setting [6]) is greater than 10 µM; in assay [2], 2.18 µM. For the same compound, the inhibition at 0.5 µM in assay [3] was determined as 33.7%.
In the case of `O=C(O)c1ccc2c(c1)nc(NC1CC1)c1nc(NC(CO)c3ccccc3)ncc12` (stereo not shown), the values for the IC50 in assay [1] (setting [5]) and in assay [2] were greater than 10 µM and 27.5 µM, respectively. The inhibition at 0.5 µM in assay [3] was -22.8%.
On the same counts, the results for `O=C(O)c1ccc2c(c1)nc(NC1CC1)c1nc(NC3CCNCC3)ncc12` are greater than 10 µM, greater than 50 µM and 18.9%.
Consider `COC(=O)c1ccc2c(c1)nc(NC1CC1)c1nc(SC)ncc12` [drawing 1641], for which the results for the IC50 in assay [1] (setting [5]) and in assay [2] were greater than 10 µM and greater than 50 µM, respectively. Further, in assay [3], the inhibition at 0.5 µM turned out to be 17.1%.
The corresponding values for `CCOc1ccc(Nc2ncc3c(n2)c(NC2CC2)nc2cc(C(=O)O)ccc23)cc1` are greater than 10 µM, 9.26 µM and 45.9%.
On the same counts, the results for `C#Cc1cccc(Nc2nc3cc(C(=O)NC)ccc3c3cncnc23)c1` are 7.17 µM, 1.95 µM and -28.3%.
On the same counts, the results for `O=C(O)c1ccc2c(c1)nc(NC1CC1)c1nc(SCc3ccccc3Cl)ncc12` [drawing 1614] are greater than 10 µM, 29.3 µM and 7.49%.
For `CNc1ncc2c(n1)c(Nc1cccc(Cl)c1)nc1cc(C(=O)O)ccc12`, the IC50 in assay [1] (setting [6]) is greater than 10 µM; in assay [2] it was 1.09 µM. Also, in assay [3], the inhibition at 0.5 µM is 51.5%.
`COC(=O)c1ccc2c(c1)nc(NC1CC1)c1nc(SCc3ccccc3Cl)ncc12` [drawing 1611]: the IC50 in assay [1] (setting [5]) was greater than 10 µM; in assay [2], 4.67 µM. For the same compound, in assay [3], the inhibition at 0.5 µM was -0.924%.
In the case of `O=C(O)c1ccc2c(c1)nc(NC1CC1)c1nc(NCCN3CCOCC3)ncc12`, the IC50 was greater than 10 µM in assay [1] (setting [5]) and 21 µM in assay [2]. In assay [3], the inhibition at 0.5 µM came out at 41.2%.
With `CC(C)Nc1ncc2c(n1)c(NC1CC1)nc1cc(C(=O)O)ccc12`, the results for the IC50 in assay [1] (setting [6]) and in assay [2] were greater than 10 µM and 2.14 µM, respectively. For the same compound, the inhibition at 0.5 µM in assay [3] is 73.3%. For the same compound, the pIC50 in assay [3] was less than 5.96.
For `COc1ccc(Nc2ncc3c(n2)c(NC2CC2)nc2cc(C(=O)O)ccc23)cc1Cl`, the IC50 is 2.31 µM in assay [1] (setting [5]) and 9.17 µM in assay [2]. For the same compound, the inhibition at 0.5 µM in assay [3] came to 38.7%.
Consider `O=C(O)c1ccc2c(c1)nc(NC1CC1)c1nc(NCCc3ccccc3)ncc12`, for which the figures for the IC50 in assay [1] (setting [6]) and in assay [2] were greater than 10 µM and 0.826 µM, respectively. In assay [3], the inhibition at 0.5 µM is -11.1%.
For the compound `CN(C)CCNc1nc2cc(C(=O)O)ccc2c2cnc(NC3CC3)nc12` [drawing 1642], the IC50 is greater than 10 µM in assay [1] (setting [5]) and 34 µM in assay [2]. Further, the inhibition at 0.5 µM in assay [3] is -37.5%.
On the same counts, the results for `COC(=O)c1ccc2c(c1)nc(Nc1ccccc1C)c1nc(S(C)(=O)=O)ncc12` are greater than 10 µM, greater than 30 µM and 25.3%.
Consider `C#Cc1cccc(Nc2nc3cc(C(=O)NC4CC4)ccc3c3cncnc23)c1`, for which the IC50 in assay [1] (setting [5]) came out at 3.49 µM; in assay [2], 1.54 µM. In assay [3], the inhibition at 0.5 µM is -13.1%.
With `O=C(O)c1ccc2c(c1)nc(NC1CC1)c1nc(NCc3ccncc3)ncc12`, the results for the IC50 in assay [1] (setting [6]) and in assay [2] were greater than 10 µM and 35.6 µM, respectively. Further, the inhibition at 0.5 µM in assay [3] turned out to be 8.18%.
Consider `Nc1nc2cc(C(=O)O)ccc2c2cnc(NC3CC3)nc12`, for which the figures for the IC50 in assay [1] (setting [5]) and in assay [2] were greater than 10 µM and 55.2 µM, respectively. Further, in assay [3], the inhibition at 0.5 µM is 0.938%.
On to `C#Cc1cccc(Nc2nc3cc(C(=O)N4CCCC4)ccc3c3cncnc23)c1`, for which the IC50 is greater than 10 µM in assay [1] (setting [5]) and 13.3 µM in assay [2]. In addition, in assay [3], the inhibition at 0.5 µM was -7.6%.
Turning to `O=C(O)c1ccc2c(c1)nc(NC1CC1)c1nc(Nc3ccc(F)c(Cl)c3)ncc12`, the figures for the IC50 in assay [1] (setting [5]) and in assay [2] were greater than 10 µM and 26.6 µM, respectively. For the same compound, in assay [3], the inhibition at 0.5 µM stood at 8.76%.
For the compound `O=C(O)c1ccc2c(c1)nc(NC1CC1)c1nc(Nc3ccc(F)cc3)ncc12`, the IC50 in assay [1] (setting [5]) was greater than 10 µM. The IC50 in assay [2] is 5.02 µM. In addition, in assay [3], the inhibition at 0.5 µM is 49.3% and the pIC50 is 5.97.
For the compound `CC(=O)Nc1cccc(Nc2ncc3c(n2)c(NC2CC2)nc2cc(C(=O)O)ccc23)c1`, the results for the IC50 in assay [1] (setting [5]) and in assay [2] were greater than 10 µM and greater than 62.5 µM, respectively. For the same compound, in assay [3], the inhibition at 0.5 µM is 32%.
`O=C(O)c1ccc2c(c1)nc(NC1CC1)c1nc(NCc3cccnc3)ncc12`: the IC50 in assay [1] (setting [5]) was greater than 10 µM; in assay [2], greater than 50 µM. Besides, the negative-log IC50 (pIC50) in assay [4] was 7.64.
In the case of `CNc1ncc2c(n1)c(NC1CC1)nc1cc(C(=O)O)ccc12`, the IC50 in assay [1] (setting [6]) is greater than 10 µM. In addition, the IC50 in assay [2] turned out to be 9.68 µM. In assay [3], the inhibition at 0.5 µM turned out to be 52.4% and the pIC50 was 6.27.
`C#Cc1cccc(Nc2nc3cc(C(=O)N4CCOCC4)ccc3c3cncnc23)c1`: the IC50 in assay [1] (setting [5]) is greater than 10 µM; in assay [2] it was greater than 30 µM. The inhibition at 0.5 µM in assay [3] is -17.6%.
For the compound `O=C(O)c1ccc2c(c1)nc(NC1CC1)c1nc(NNCCO)ncc12`, the figures for the IC50 in assay [1] (setting [5]) and in assay [2] were greater than 10 µM and greater than 50 µM, respectively. In assay [3], the inhibition at 0.5 µM was -37%.
In the case of `C#Cc1cccc(Nc2nc3cc(C(=O)NCc4ccc(C#N)cc4)ccc3c3cncnc23)c1`, the values for the IC50 in assay [1] (setting [5]) and in assay [2] were greater than 10 µM and 9.09 µM, respectively. For the same compound, the inhibition at 0.5 µM in assay [3] was -14.6%.
On the same counts, the results for `O=C(O)c1ccc2c(c1)nc(N1CCC(c3ccccc3)C1)c1ccncc12` (stereo not shown) are greater than 10 µM, greater than 30 µM and 1.04%.
On the same counts, the results for `O=C(O)c1ccc2c(c1)nc(NC1CC1)c1nc(Nc3cccc4ccccc34)ncc12` are greater than 10 µM, 23.3 µM and 22.9%.
`C#Cc1cccc(Nc2nc3cc(C(=O)N(C)c4ccccc4)ccc3c3cncnc23)c1`: the values for the IC50 in assay [1] (setting [5]) and in assay [2] were greater than 10 µM and 18.8 µM, respectively. Further, in assay [3], the inhibition at 0.5 µM is -11.2%.
Turning to `O=C(O)c1ccc2c(c1)nc(NC1CC1)c1nc(Nc3cc(F)ccc3F)ncc12`, in assay [1] (setting [5]), the IC50 was greater than 10 µM. For the same compound, in assay [2], the IC50 came to 15.7 µM. Moreover, in assay [3], the inhibition at 0.5 µM was 50.4% and the pIC50 was less than 5.96.
The corresponding values for `O=C(O)c1ccc2c(c1)nc(Nc1ccc(OC(F)(F)F)cc1)c1ccncc12` are greater than 10 µM, 4.7 µM, 68.3% and 6.18.
Consider `O=C(O)c1ccc2c(c1)nc(NC1CC1)c1nc(Nc3ccccc3)ncc12` [drawing 1618], for which the IC50 was greater than 10 µM in assay [1] (setting [6]) and 4.6 µM in assay [2]. In assay [3], the inhibition at 0.5 µM came out at 46%.
